Measurements reported in PubChem BioAssay (NCI).
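Test compounds were applied to cells in 96-well plates for 48 hours at 5 doses. The concentration for 50% growth inhibition is given as GI50. The concentration for full growth arrest is given as TGI.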

How the values were obtained:
Experiment in all cases: DTP human tumour cell line panel, 48 h
HOP-92 NSCLC = tested on: HOP-92 NSCLC
OVCAR-5 ovarian = tested on: OVCAR-5 ovarian
SNB-75 CNS = tested on: SNB-75 CNS
786-0 renal = tested on: 786-0 renal
MOLT-4 leukemia = tested on: MOLT-4 leukemia
RPMI-8226 leukemia = tested on: RPMI-8226 leukemia
SK-OV-3 ovarian = tested on: SK-OV-3 ovarian
SF-268 CNS = tested on: SF-268 CNS
MDA-MB-231 breast = tested on: MDA-MB-231 breast
MDA-MB-435 = tested on: MDA-MB-435

SMILES: CN(C)c1ccc(C(=S)c2ccc(N(C)C)cc2)cc1
- GI50 (HOP-92 NSCLC): 9.01 µM
- TGI (HOP-92 NSCLC): 86.8 µM
- GI50 (OVCAR-5 ovarian): 39100 nM
- TGI (OVCAR-5 ovarian): > 100 µM
- GI50 (SNB-75 CNS): 5280 nM
- TGI (SNB-75 CNS): 40.2 µM
- GI50 (786-0 renal): 10.3 µM
- TGI (786-0 renal): > 100 µM
- GI50 (MOLT-4 leukemia): 6.35 µM
- TGI (MOLT-4 leukemia): > 100 µM
- GI50 (RPMI-8226 leukemia): 9.89 µM
- TGI (RPMI-8226 leukemia): > 100 µM
- GI50 (SK-OV-3 ovarian): 10900 nM
- TGI (SK-OV-3 ovarian): > 100 µM
- GI50 (SF-268 CNS): 10.1 µM
- TGI (SF-268 CNS): > 100 µM
- GI50 (MDA-MB-231 breast): 8 µM
- TGI (MDA-MB-231 breast): > 100 µM

SMILES: CCOC(=O)c1oc2c(OC)ccc3c2c1CCC3
- TGI (HOP-92 NSCLC): > 100 µM
- TGI (OVCAR-5 ovarian): > 100 µM
- TGI (SNB-75 CNS): > 100 µM
- TGI (786-0 renal): > 100 µM
- TGI (MOLT-4 leukemia): > 100 µM
- TGI (RPMI-8226 leukemia): > 100 µM
- TGI (SK-OV-3 ovarian): > 100 µM
- TGI (SF-268 CNS): > 100 µM

SMILES: O=C1/C(=C/c2cccnc2)SC(=S)N1Cc1ccco1
- TGI (HOP-92 NSCLC): > 43.1 µM
- TGI (OVCAR-5 ovarian): > 81.7 µM
- TGI (786-0 renal): > 40.8 µM
- TGI (MDA-MB-435): 5.54 µM
- TGI (MOLT-4 leukemia): 14.3 µM
- TGI (RPMI-8226 leukemia): > 23.7 µM
- TGI (SK-OV-3 ovarian): > 75.9 µM
- TGI (SF-268 CNS): > 23.9 µM
- TGI (MDA-MB-231 breast): > 51.1 µM

SMILES: N#CCc1c(F)c(F)c(F)c(F)c1F
- TGI (OVCAR-5 ovarian): > 100 µM
- TGI (786-0 renal): > 100 µM
- TGI (MDA-MB-435): > 100 µM
- TGI (MOLT-4 leukemia): > 100 µM
- TGI (RPMI-8226 leukemia): > 100 µM
- TGI (SK-OV-3 ovarian): > 100 µM
- TGI (SF-268 CNS): > 100 µM
- TGI (MDA-MB-231 breast): > 100 µM

SMILES: COc1ccc2[nH]c(Cl)c(/C=C3/C(=O)Nc4ccccc43)c2c1
- GI50 (HOP-92 NSCLC): 1.99 µM
- TGI (HOP-92 NSCLC): 4.09 µM
- GI50 (OVCAR-5 ovarian): 554 nM
- TGI (OVCAR-5 ovarian): 3.12 µM
- GI50 (SNB-75 CNS): 252 nM
- TGI (SNB-75 CNS): 0.659 µM
- GI50 (786-0 renal): 0.282 µM
- TGI (786-0 renal): 0.937 µM
- GI50 (MDA-MB-435): 251 nM
- TGI (MDA-MB-435): 0.708 µM
- GI50 (RPMI-8226 leukemia): 0.213 µM
- TGI (RPMI-8226 leukemia): 0.591 µM
- GI50 (SK-OV-3 ovarian): 865 nM
- TGI (SK-OV-3 ovarian): 16.9 µM
- GI50 (SF-268 CNS): 0.939 µM
- TGI (SF-268 CNS): 36.5 µM
- GI50 (MDA-MB-231 breast): < 0.0477 µM
- TGI (MDA-MB-231 breast): 2.95 µM

SMILES: c1ccc2c(c1)[nH]c1cnc3c4ncccc4[nH]c3c12
- TGI (HOP-92 NSCLC): 79.3 µM
- TGI (OVCAR-5 ovarian): > 100 µM
- TGI (SNB-75 CNS): > 100 µM
- TGI (786-0 renal): > 100 µM
- TGI (MOLT-4 leukemia): 97.6 µM
- TGI (RPMI-8226 leukemia): > 100 µM
- TGI (SK-OV-3 ovarian): > 100 µM
- TGI (SF-268 CNS): > 100 µM

SMILES: O=C1C=CC2(CCCCCCC2=O)CC1 (stereo unspecified)
- TGI (HOP-92 NSCLC): > 100 µM
- TGI (OVCAR-5 ovarian): > 100 µM
- TGI (SNB-75 CNS): > 100 µM
- TGI (786-0 renal): > 100 µM
- TGI (MOLT-4 leukemia): > 100 µM
- TGI (RPMI-8226 leukemia): > 100 µM
- TGI (SK-OV-3 ovarian): > 100 µM
- TGI (SF-268 CNS): > 100 µM

SMILES: Oc1ccc2ccccc2c1CCc1c(O)ccc2ccccc12
- TGI (HOP-92 NSCLC): 24.7 µM
- TGI (OVCAR-5 ovarian): 27.2 µM
- TGI (SNB-75 CNS): 18.3 µM
- TGI (786-0 renal): 34.9 µM
- TGI (MDA-MB-435): 25.4 µM
- TGI (RPMI-8226 leukemia): 22 µM
- TGI (SK-OV-3 ovarian): 29.4 µM
- TGI (SF-268 CNS): 25.2 µM
- TGI (MDA-MB-231 breast): 27.5 µM

SMILES: O=C(CCC(=O)Nc1ccccc1C(F)(F)F)N/N=C1\C(=N\NC(=O)CCC(=O)Nc2ccccc2C(F)(F)F)C(c2ccc3c(c2)OCO3)Oc2ccccc21 (stereo unspecified)
- TGI (HOP-92 NSCLC): > 87.1 µM
- TGI (OVCAR-5 ovarian): > 100 µM
- TGI (SNB-75 CNS): 43.2 µM
- TGI (786-0 renal): > 100 µM
- TGI (MOLT-4 leukemia): > 100 µM
- TGI (RPMI-8226 leukemia): > 100 µM
- TGI (SK-OV-3 ovarian): > 82.5 µM
- TGI (SF-268 CNS): 18.9 µM

SMILES: Nc1n[n+]([O-])c2cc([N+](=O)[O-])ccc2[n+]1[O-]
- TGI (OVCAR-5 ovarian): 42.2 µM
- TGI (SNB-75 CNS): 83.4 µM
- TGI (786-0 renal): 17.3 µM
- TGI (MDA-MB-435): 3.26 µM
- TGI (MOLT-4 leukemia): 4.16 µM
- TGI (RPMI-8226 leukemia): > 100 µM
- TGI (SK-OV-3 ovarian): 61.2 µM
- TGI (MDA-MB-231 breast): 44.7 µM

SMILES: OCC#CCOCC#Cc1ccccc1C#CCOCC#CCO
- GI50 (HOP-92 NSCLC): 21.8 µM
- TGI (HOP-92 NSCLC): > 100 µM
- GI50 (OVCAR-5 ovarian): > 100000 nM
- TGI (OVCAR-5 ovarian): > 100 µM
- GI50 (786-0 renal): 34 µM
- TGI (786-0 renal): > 100 µM
- GI50 (MDA-MB-435): 53300 nM
- TGI (MDA-MB-435): > 100 µM
- GI50 (MOLT-4 leukemia): 44.8 µM
- TGI (MOLT-4 leukemia): > 100 µM
- GI50 (RPMI-8226 leukemia): 13.7 µM
- TGI (RPMI-8226 leukemia): 35.3 µM
- GI50 (SF-268 CNS): 36.9 µM
- TGI (SF-268 CNS): > 100 µM
- GI50 (MDA-MB-231 breast): 30.2 µM
- TGI (MDA-MB-231 breast): 83.4 µM

SMILES: COc1cc(/C=C/C(=O)c2cccc3ccccc23)cc(OC)c1OC
- TGI (OVCAR-5 ovarian): 27.5 µM
- TGI (SNB-75 CNS): 23.3 µM
- TGI (786-0 renal): 14.8 µM
- TGI (MOLT-4 leukemia): 34.4 µM
- TGI (SK-OV-3 ovarian): 28.5 µM
- TGI (SF-268 CNS): 18.2 µM

SMILES: CN1CCN(CCCOc2cccc3nc(Nc4cc(Cl)cc(Cl)c4)ccc23)CC1
- GI50 (HOP-92 NSCLC): 1.59 µM
- TGI (HOP-92 NSCLC): 4.82 µM
- GI50 (OVCAR-5 ovarian): 1790 nM
- TGI (OVCAR-5 ovarian): 3.43 µM
- GI50 (786-0 renal): 1.49 µM
- TGI (786-0 renal): 2.94 µM
- GI50 (MDA-MB-435): 1680 nM
- TGI (MDA-MB-435): 3.2 µM
- GI50 (RPMI-8226 leukemia): 2.17 µM
- TGI (RPMI-8226 leukemia): 4.93 µM
- GI50 (SK-OV-3 ovarian): 1760 nM
- TGI (SK-OV-3 ovarian): 3.3 µM
- GI50 (SF-268 CNS): 1.69 µM
- TGI (SF-268 CNS): 3.38 µM
- GI50 (MDA-MB-231 breast): 1.57 µM
- TGI (MDA-MB-231 breast): 3.12 µM

SMILES: Cc1noc2cccc(O)c12
- TGI (HOP-92 NSCLC): > 100 µM
- TGI (OVCAR-5 ovarian): > 100 µM
- TGI (SNB-75 CNS): > 100 µM
- TGI (786-0 renal): > 100 µM
- TGI (MOLT-4 leukemia): > 100 µM
- TGI (SK-OV-3 ovarian): > 100 µM
- TGI (SF-268 CNS): > 100 µM

SMILES: C=C1CCC2CC1C(C(=O)c1c[nH]c3ccccc13)=NC2(C)C (stereo unspecified)
- TGI (OVCAR-5 ovarian): > 100 µM
- TGI (SNB-75 CNS): > 100 µM
- TGI (786-0 renal): > 100 µM
- TGI (MDA-MB-435): > 100 µM
- TGI (MOLT-4 leukemia): > 100 µM
- TGI (RPMI-8226 leukemia): > 100 µM
- TGI (SK-OV-3 ovarian): > 100 µM
- TGI (SF-268 CNS): > 100 µM
- TGI (MDA-MB-231 breast): > 100 µM

SMILES: CC1=C(C(=O)Nc2cccc(Cl)c2)C(c2ccccc2O)C(C(=O)Nc2cccc(Cl)c2)=C(C)N1
- TGI (HOP-92 NSCLC): 37 µM
- TGI (OVCAR-5 ovarian): 38.6 µM
- TGI (SNB-75 CNS): 43 µM
- TGI (786-0 renal): 29.2 µM
- TGI (MOLT-4 leukemia): 59.2 µM
- TGI (RPMI-8226 leukemia): 46 µM
- TGI (SK-OV-3 ovarian): 54.4 µM
- TGI (SF-268 CNS): 37.9 µM

SMILES: O/N=C1/CCC/C1=C\c1ccccc1
- TGI (HOP-92 NSCLC): > 100 µM
- TGI (OVCAR-5 ovarian): > 100 µM
- TGI (SNB-75 CNS): 44.8 µM
- TGI (786-0 renal): > 100 µM
- TGI (MOLT-4 leukemia): > 100 µM
- TGI (RPMI-8226 leukemia): > 100 µM
- TGI (SK-OV-3 ovarian): > 100 µM
- TGI (SF-268 CNS): > 100 µM

SMILES: Cc1ccccc1/C=C/c1csnn1
- TGI (HOP-92 NSCLC): > 100 µM
- TGI (OVCAR-5 ovarian): > 100 µM
- TGI (SNB-75 CNS): > 100 µM
- TGI (786-0 renal): > 100 µM
- TGI (MOLT-4 leukemia): > 100 µM
- TGI (RPMI-8226 leukemia): 79.7 µM
- TGI (SK-OV-3 ovarian): > 100 µM
- TGI (SF-268 CNS): > 71.4 µM

SMILES: O=C1OC(CC(=O)c2ccc(F)cc2)C(Cl)=C1Cl (stereo unspecified)
- TGI (HOP-92 NSCLC): 34.7 µM
- TGI (OVCAR-5 ovarian): 44.9 µM
- TGI (786-0 renal): 34.3 µM
- TGI (MOLT-4 leukemia): > 100 µM
- TGI (RPMI-8226 leukemia): > 100 µM
- TGI (SK-OV-3 ovarian): > 100 µM

SMILES: NC1=NN(c2ccccc2)C(=O)C1C(=O)C(=O)Nc1ccc(Cl)cc1 (stereo unspecified)
- TGI (HOP-92 NSCLC): > 100 µM
- TGI (OVCAR-5 ovarian): > 100 µM
- TGI (SNB-75 CNS): > 100 µM
- TGI (786-0 renal): > 100 µM
- TGI (MOLT-4 leukemia): > 100 µM
- TGI (RPMI-8226 leukemia): > 100 µM
- TGI (SK-OV-3 ovarian): > 100 µM
- TGI (SF-268 CNS): > 100 µM

SMILES: CC(=O)OC1C[C@H]2C(OC(=O)c3ccccc3)C3C4(OC(C)=O)COC4C[C@H](OC(C)=O)[C@@]3(C)C(OC(C)=O)[C@H](OC(C)=O)C(=C1C)C2(C)C (stereo partly specified)
- TGI (OVCAR-5 ovarian): > 100 µM
- TGI (SNB-75 CNS): 45.2 µM
- TGI (786-0 renal): > 100 µM
- TGI (MOLT-4 leukemia): > 100 µM
- TGI (RPMI-8226 leukemia): > 100 µM
- TGI (SK-OV-3 ovarian): > 100 µM
- TGI (SF-268 CNS): > 100 µM
